Laboratory results from patent US11931389B2, “Tablet of sporoderm-removed ganoderma lucidum spore and preparation method thereof” (Zhejiang Shouxiangu Pharmaceutical Company, Ltd., priority 2017, dated 2024).
Where a name gives a salt, the structure may show the parent alone.

Legend:
Assay type in all cases: in vivo
[1] = test system: human lymphatic cancer (Ramos) transplanted tumor; assay: Zebrafish human lymphatic cancer (Ramos) transplanted tumor model; settings: Danio rerio, 48 h, 2 days, read-out: Inhibition Effect
Description: Human lymphatic cancer (Ramos) cells were labeled with a red fluorescent dye (CM-Dil), and transplanted into zebrafish yolk sacs by microinjection, with about 200 cells being transplanted per zebrafish, so as to establish a zebrafish human lymphatic cancer transplanted tumor model.
(§1) Human lymphatic cancer (Ramos) cells were labeled with CM-Dil, and transplanted into 2 dpf wild type AB strain zebrafish yolk sacs by microinjection, with about 200 cells being transplanted per zebrafish, so as to establish a zebrafish human lymphatic cancer transplanted model; and the zebrafishes injected with the human lymphatic cancer cells were fed at 35° C. until 3 dpf.
Zebrafishes with better consistence in transplanted tumor cells were picked out under a microscope, randomly assigned to a 6-well plate, and were given in a water-dissolving administration manner respectively with the samples at concentrations respectively of 1, 3 and 9 μg/mL and the positive control drug vincristine at a concentration of 5 μM; and meanwhile a model control group was set, where there were 30 zebrafishes per well (concentration group), and the volume of each well was 5 mL. […] The inhibitory effect of the sample on the zebrafish lymphatic cancer (Ramos) transplanted tumor was evaluated with the fluorescence intensities, and the tumor inhibition effect was calculated using the following equation. […]

[2] = test system: human lung adenocarcinoma (A549) transplanted tumor; assay: Zebrafish human lung adenocarcinoma (A549) transplanted tumor model; settings: A549, 50 μM, 2 days
Description: Human lung adenocarcinoma (A549) cells were labeled with a red fluorescent dye (CM-Dil), and transplanted into zebrafish yolk sacs by microinjection, with about 200 cells being transplanted per zebrafish, so as to establish a zebrafish human lung adenocarcinoma transplanted tumor model.
as §1, with “Human lung adenocarcinoma (A549)” for “Human lymphatic cancer (Ramos)”, “human lung adenocarcinoma (A549)” for “human lymphatic cancer”, “the A549” for “the human lymphatic cancer”
Zebrafishes with better consistence in transplanted tumor cells were picked out under a microscope, randomly assigned to a 6-well plate, and were given in a water-dissolving administration manner respectively with the samples at concentrations respectively of 1, 3 and 9 μg/mL and the positive control drug cis-platinum at a concentration of 50 μM; and meanwhile a model control group was set, where there were 30 zebrafishes per well (concentration group), and the volume of each well was 5 mL. […] The inhibitory effect of the sample No. 3 on the zebrafish lung adenocarcinoma (A549) transplanted tumor was evaluated with the fluorescence intensities, and the tumor inhibition effect was calculated using the following equation. […]

[3] = test system: human gastric cancer (SGC-7901) transplanted tumor; assay: Zebrafish human gastric cancer (SGC-7901) transplanted tumor model; settings: SGC-7901, 50 μM, 2 days
Description: Human gastric cancer (SGC-7901) cells were labeled with a red fluorescent dye (CM-Dil), and transplanted into zebrafish yolk sacs by microinjection, with about 200 cells being transplanted per zebrafish, so as to establish the zebrafish human gastric cancer transplanted tumor model.
Human gastric cancer (SGC-7901) cells were labeled with CM-Dil, and transplanted into 2 dpf wild type AB strain zebrafish yolk sacs by microinjection, with about 200 cells per zebrafish, so as to establish a zebrafish human gastric cancer (SGC-7901) transplanted model; and the zebrafishes injected with the SGC-7901 cells were fed at 35° C. until 3 dpf.
Zebrafishes with better consistence in transplanted tumor cells were picked out under a microscope, randomly assigned to a 6-well plate, and were given in a water-dissolving administration manner respectively with the samples at concentrations respectively of 28, 83 and 250 μg/mL and the positive control drug cis-platinum at a concentration of 50 μM; and meanwhile a model control group was set, where there were 30 zebrafishes per well, and the volume of each well was 5 mL. […] The inhibitory effects of samples on the zebrafish gastric cancer (SGC-7901) transplanted tumor were respectively evaluated with the fluorescence intensities, and the tumor inhibition effect was calculated using the following equation. […]

Compound	inhibition at 5 µM [1]	Inhibition Effect [2]	Inhibition Effect [3]
CC[C@]1(O)C[C@H]2CN(CCc3c([nH]c4ccccc34)[C@@](C(=O)OC)(c3cc4c(cc3OC)N(C=O)[C@H]3[C@@](O)(C(=O)OC)[C@H](OC(C)=O)[C@]5(CC)C=CCN6CC[C@]43[C@@H]65)C2)C1 [vincristine, Vincristine sulfate]	35%		
N.N.[Cl][Pt][Cl] [cis-platinum, Cis-platinum]		29%	37%
